In the supplement of paper PMC11061612:

Tests used:
[1] = test system: HCC-44 (Lung Adenocarcinoma); experiment: Bliss excess, mean over the matrix (fraction); higher = more synergy
In short: (§1)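 After 24 hours at 37°C and 5% CO2 in 1536-well plates, cells in DMEM/F12 or RPMI plus 10% FBS received two-drug dose matrices for 72 hours. Viability came from CellTiter-Glo 2.0 luminescence and was scaled as inhibition, anchored at 0 by vehicle wells and at 1 by blank wells. Combination Emax is taken as the second-highest inhibition in the matrix, and Bliss excess as the observed combination effect less EA + EB − EA·EB, with EA and EB the single-agent effects.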

[2] = test system: 786-0 (Kidney Carcinoma); experiment: combination Emax (second highest fraction inhibited in the dose matrix, 72 h); higher = more inhibition; extreme values may be limits of the assay
In short: as §1

[3] = test system: FLO-1 (Esophageal Adenocarcinoma); experiment: as above
In short: as §1

[4] = test system: HCC-44 (Lung Adenocarcinoma); experiment: as above
In short: as §1

[5] = test system: RMG-I (Ovarian Carcinoma); experiment: as above
In short: as §1

[6] = test system: NKM-1 (Acute Myeloid Leukemia); experiment: as above
In short: as §1
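For Bliss excess, mean over the matrix in this document: after 72 h of two-drug dosing.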

| SMILES | Bliss excess [1] | combination Emax [2] | combination Emax [3] | combination Emax [4] | combination Emax [5] | combination Emax [6] |
| --- | --- | --- | --- | --- | --- | --- |
| CC(=O)c1c(C)c2cnc(Nc3ccc(N4CCNCC4)cn3)nc2n(C2CCCC2)c1=O [Palbociclib] + Cn1cnc2c(F)c(Nc3ccc(Br)cc3Cl)c(C(=O)NOCCO)cc21 [Selumetinib] (first compound max 10 µM, 7x7, partner max 10 µM) | 0.0332 | 0.357 | 0.531 | 0.426 | 0.353 | 0.944 |
| C[C@@H](c1ccc2nccn2c1)n1nnc2ncc(-c3cnn(C)c3)nc21 [Savolitinib] + CC1(C)CCC(CN2CCN(c3ccc(C(=O)NS(=O)(=O)c4ccc(NCC5CCOCC5)c([N+](=O)[O-])c4)c(Oc4cnc5[nH]ccc5c4)c3)CC2)=C(c2ccc(Cl)cc2)C1 [Venetoclax] (first compound max 1 µM, 7x7, partner max 1 µM) | -0.02 | 0.159 | 0.2 | 0.148 | 0.208 | 0.545 |
| C[C@@H](c1ccc2nccn2c1)n1nnc2ncc(-c3cnn(C)c3)nc21 [Savolitinib] + Cc1c2c(nn1C)CSCc1cc(n(C)n1)CSc1cc(c3ccccc3c1)OCCCc1c(C(=O)O)n(C)c3c-2c(Cl)ccc13 [AZD5991] (first compound max 1 µM, 7x7, partner max 1 µM) | -0.0335 | 0.183 | 0.294 | 0.0929 | 0.216 | 0.976 |
| Cn1cnc2c(F)c(Nc3ccc(Br)cc3Cl)c(C(=O)NOCCO)cc21 [Selumetinib] + C=CCn1c(=O)c2cnc(Nc3ccc(N4CCN(C)CC4)cc3)nc2n1-c1cccc(C(C)(C)O)n1 [AZD1775] (first compound max 10 µM, partner max 1 µM) | -0.0088 | 0.572 | 0.792 | 0.64 | 0.359 | 0.875 |
| Cn1cnc2c(F)c(Nc3ccc(Br)cc3Cl)c(C(=O)NOCCO)cc21 [Selumetinib] + CC(C)n1c(=O)n(C)c2cnc3cc(F)c(-c4ccc(OCCCN5CCCCC5)nc4)cc3c21 [AZD1390] (first compound max 10 µM, 7x7, partner max 0.3 µM) | -0.0225 | 0.159 | 0.424 | 0.396 | 0.362 | 0.504 |
| Cn1cnc2c(F)c(Nc3ccc(Br)cc3Cl)c(C(=O)NOCCO)cc21 [Selumetinib] + CCN(CCO)CCCOc1ccc2c(Nc3cc(CC(=O)Nc4cccc(F)c4)[nH]n3)ncnc2c1 [AZD2811] (first compound max 10 µM, 7x7, partner max 1 µM) | 0.0067 | 0.208 | 0.475 | 0.528 | 0.364 | 0.758 |
| Cn1cnc2c(F)c(Nc3ccc(Br)cc3Cl)c(C(=O)NOCCO)cc21 [Selumetinib] + C[C@@H]1COCCN1C2=NC(=NC(=C2)C3(CC3)[S@](=N)(=O)C)C4=C5C=CNC5=NC=C4 [AZD6738] (first compound max 10 µM, 7x7, partner max 10 µM) | -0.034 | 0.606 | 0.635 | 0.503 | 0.354 | 0.796 |
